Tested on: 926638-142-R-J1-PDC complex spheroid viability
Experiment: Anticancer human tumor 926638-142-R-J1-PDC patient-derived endometrial carcinoma cell line growth inhibition [POLQ]
Conditions: for IC50: curve of first compound; for viability, T/C: stronger effect = lower value
In short: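 Three-cell-type spheroids modelling solid tumor plus stroma served as the readout system; POL inhibitors were tested individually and in combination, concentration ranges set by clinical Cmax where known.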

[1] = second compound 0.0316 µM, first compound 0.0316 µM
[2] = second compound 0.0316 µM, first compound 0.1 µM
[3] = second compound 0.0316 µM, first compound 0.316 µM
[4] = second compound 0.0316 µM, first compound 1 µM
[5] = second compound 0.0316 µM, first compound 3.16 µM
[6] = second compound 0.0316 µM, first compound 10 µM
[7] = second compound 0.1 µM, first compound 0.0316 µM
[8] = second compound 0.1 µM, first compound 0.1 µM
[9] = second compound 0.1 µM, first compound 0.316 µM
[10] = second compound 0.1 µM, first compound 1 µM
[11] = second compound 0.1 µM, first compound 3.16 µM
[12] = second compound 0.1 µM, first compound 10 µM
[13] = second compound 0.316 µM, first compound 0.0316 µM
[14] = second compound 0.316 µM, first compound 0.1 µM
[15] = second compound 0.316 µM, first compound 0.316 µM
[16] = second compound 0.316 µM, first compound 1 µM
[17] = second compound 0.316 µM, first compound 3.16 µM
[18] = second compound 0.316 µM, first compound 10 µM
[19] = second compound 1 µM, first compound 0.0316 µM
[20] = second compound 1 µM, first compound 0.1 µM
[21] = second compound 1 µM, first compound 0.316 µM
[22] = second compound 1 µM, first compound 1 µM
[23] = second compound 1 µM, first compound 3.16 µM
[24] = second compound 1 µM, first compound 10 µM
[25] = second compound 3.16 µM, first compound 0.0316 µM
[26] = second compound 3.16 µM, first compound 0.1 µM
[27] = second compound 3.16 µM, first compound 0.316 µM
[28] = second compound 3.16 µM, first compound 1 µM
[29] = second compound 3.16 µM, first compound 3.16 µM
[30] = second compound 3.16 µM, first compound 10 µM
[31] = second compound 10 µM, first compound 0.0316 µM
[32] = second compound 10 µM, first compound 0.1 µM
[33] = second compound 10 µM, first compound 0.316 µM
[34] = second compound 10 µM, first compound 1 µM
[35] = second compound 10 µM, first compound 3.16 µM
[36] = second compound 10 µM, first compound 10 µM
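Note: spheroids exposed to drugs for one week before readout.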
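Throughout, for viability, T/C: percent viability relative to DMSO vehicle control wells set as 100%.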

CC(=O)O[C@H]1C(=O)[C@@]2(C)[C@H]([C@H](OC(=O)c3ccccc3)[C@]3(O)C[C@H](OC(=O)[C@H](O)[C@@H](NC(=O)c4ccccc4)c4ccccc4)C(C)=C1C3(C)C)[C@]1(OC(C)=O)CO[C@@H]1C[C@@H]2O + COC1C(OC(N)=O)C(O)C(Oc2ccc3c(O)c(NC(=O)c4ccc(O)c(CC=C(C)C)c4)c(=O)oc3c2C)OC1(C)C
IC50 (second compound 0.0316 µM): > 3 µM | IC50 (second compound 0.1 µM): > 3 µM | IC50 (second compound 0.316 µM): > 3 µM | IC50 (second compound 1 µM): > 3 µM | IC50 (second compound 3.16 µM): > 3 µM | IC50 (second compound 10 µM): > 3 µM | viability, T/C (second compound 0.0316 µM, first compound 0.00949 µM): 94.1% | viability, T/C (second compound 0.0316 µM, first compound 0.03 µM): 76.3% | viability, T/C (second compound 0.0316 µM, first compound 0.0949 µM): 65.2% | viability, T/C (second compound 0.0316 µM, first compound 0.3 µM): 58% | viability, T/C (second compound 0.0316 µM, first compound 0.949 µM): 62.3% | viability, T/C (second compound 0.0316 µM, first compound 3 µM): 51.4% | viability, T/C (second compound 0.1 µM, first compound 0.00949 µM): 89.5% | viability, T/C (second compound 0.1 µM, first compound 0.03 µM): 80.9% | viability, T/C (second compound 0.1 µM, first compound 0.0949 µM): 62.8% | viability, T/C (second compound 0.1 µM, first compound 0.3 µM): 49.9% | viability, T/C (second compound 0.1 µM, first compound 0.949 µM): 60.1% | viability, T/C (second compound 0.1 µM, first compound 3 µM): 59% | viability, T/C (second compound 0.316 µM, first compound 0.00949 µM): 75.5% | viability, T/C (second compound 0.316 µM, first compound 0.03 µM): 74.7% | viability, T/C (second compound 0.316 µM, first compound 0.0949 µM): 63.6% | viability, T/C (second compound 0.316 µM, first compound 0.3 µM): 58.2% | viability, T/C (second compound 0.316 µM, first compound 0.949 µM): 48.4% | viability, T/C (second compound 0.316 µM, first compound 3 µM): 63.4% | viability, T/C (second compound 1 µM, first compound 0.00949 µM): 81.4% | viability, T/C (second compound 1 µM, first compound 0.03 µM): 70% | viability, T/C (second compound 1 µM, first compound 0.0949 µM): 55.9% | viability, T/C (second compound 1 µM, first compound 0.3 µM): 53.1% | viability, T/C (second compound 1 µM, first compound 0.949 µM): 62% | viability, T/C (second compound 1 µM, first compound 3 µM): 51.8% | viability, T/C (second compound 3.16 µM, first compound 0.00949 µM): 86.5% | viability, T/C (second compound 3.16 µM, first compound 0.03 µM): 72.2% | viability, T/C (second compound 3.16 µM, first compound 0.0949 µM): 67% | viability, T/C (second compound 3.16 µM, first compound 0.3 µM): 57.6% | viability, T/C (second compound 3.16 µM, first compound 0.949 µM): 67% | viability, T/C (second compound 3.16 µM, first compound 3 µM): 54.7% | viability, T/C (second compound 10 µM, first compound 0.00949 µM): 94.6% | viability, T/C (second compound 10 µM, first compound 0.03 µM): 73.4% | viability, T/C (second compound 10 µM, first compound 0.0949 µM): 64.9% | viability, T/C (second compound 10 µM, first compound 0.3 µM): 52.1% | viability, T/C (second compound 10 µM, first compound 0.949 µM): 51.8% | viability, T/C (second compound 10 µM, first compound 3 µM): 60.4%

CC1COCCN1c1cc(C2(S(C)(=N)=O)CC2)nc(-c2ccnc3[nH]ccc23)n1 (stereo unspecified) + COC1C(OC(N)=O)C(O)C(Oc2ccc3c(O)c(NC(=O)c4ccc(O)c(CC=C(C)C)c4)c(=O)oc3c2C)OC1(C)C
IC50 (second compound 0.0316 µM): 5.67 µM | IC50 (second compound 0.1 µM): 7.87 µM | IC50 (second compound 0.316 µM): 6.15 µM | IC50 (second compound 1 µM): 5.99 µM | IC50 (second compound 3.16 µM): 5.86 µM | IC50 (second compound 10 µM): 5.68 µM | viability, T/C [1]: 119% | viability, T/C [2]: 99.4% | viability, T/C [3]: 110% | viability, T/C [4]: 88.1% | viability, T/C [5]: 64.9% | viability, T/C [6]: 35.5% | viability, T/C [7]: 96% | viability, T/C [8]: 107% | viability, T/C [9]: 109% | viability, T/C [10]: 82.7% | viability, T/C [11]: 71% | viability, T/C [12]: 44.5% | viability, T/C [13]: 107% | viability, T/C [14]: 98% | viability, T/C [15]: 115% | viability, T/C [16]: 83.1% | viability, T/C [17]: 77.2% | viability, T/C [18]: 31.9% | viability, T/C [19]: 121% | viability, T/C [20]: 101% | viability, T/C [21]: 94% | viability, T/C [22]: 84.4% | viability, T/C [23]: 77.2% | viability, T/C [24]: 31.8% | viability, T/C [25]: 93.1% | viability, T/C [26]: 106% | viability, T/C [27]: 114% | viability, T/C [28]: 99.3% | viability, T/C [29]: 70.4% | viability, T/C [30]: 32.4% | viability, T/C [31]: 97.6% | viability, T/C [32]: 91.4% | viability, T/C [33]: 100% | viability, T/C [34]: 89.2% | viability, T/C [35]: 71.1% | viability, T/C [36]: 29.8%

C=CC(=O)N1CCN(c2nc(=O)n(-c3c(C)ccnc3C(C)C)c3nc(-c4c(O)cccc4F)c(F)cc23)C(C)C1 (stereo unspecified) + COC1C(OC(N)=O)C(O)C(Oc2ccc3c(O)c(NC(=O)c4ccc(O)c(CC=C(C)C)c4)c(=O)oc3c2C)OC1(C)C
IC50 (second compound 0.0316 µM): > 10 µM | IC50 (second compound 0.1 µM): > 10 µM | IC50 (second compound 0.316 µM): > 10 µM | IC50 (second compound 1 µM): > 10 µM | IC50 (second compound 3.16 µM): > 10 µM | IC50 (second compound 10 µM): 8.27 µM | viability, T/C [1]: 83.3% | viability, T/C [2]: 95.4% | viability, T/C [3]: 76.5% | viability, T/C [4]: 86.8% | viability, T/C [5]: 64.2% | viability, T/C [6]: 52.5% | viability, T/C [7]: 92.6% | viability, T/C [8]: 91.6% | viability, T/C [9]: 85.1% | viability, T/C [10]: 80.8% | viability, T/C [11]: 80.1% | viability, T/C [12]: 65.6% | viability, T/C [13]: 101% | viability, T/C [14]: 96.2% | viability, T/C [15]: 87.3% | viability, T/C [16]: 85.8% | viability, T/C [17]: 68.5% | viability, T/C [18]: 53.6% | viability, T/C [19]: 81.3% | viability, T/C [20]: 87.9% | viability, T/C [21]: 77.1% | viability, T/C [22]: 80.9% | viability, T/C [23]: 77.2% | viability, T/C [24]: 59.4% | viability, T/C [25]: 74.1% | viability, T/C [26]: 87.7% | viability, T/C [27]: 77.4% | viability, T/C [28]: 75.7% | viability, T/C [29]: 74.5% | viability, T/C [30]: 56.5% | viability, T/C [31]: 77.4% | viability, T/C [32]: 96% | viability, T/C [33]: 103% | viability, T/C [34]: 73.6% | viability, T/C [35]: 76.1% | viability, T/C [36]: 45.1%
